# Data reported in PubChem BioAssay AID1259407 (Chemical Carcinogenesis Research Information System (CCRIS), 2018).
# Calls of active or inactive are those of the source. No rule for the calls is given here.
# Tested on: CCRIS mutagenicity, Ames/micronucleus/aberration tests
# Experiment: CCRIS mutagenicity studies
# [1] = Test System: AMES SALMONELLA TYPHIMURIUM, Strain/Indicator: TA98, Metabolic Activation: NONE, Method: STANDARD PLATE
# [2] = Test System: AMES SALMONELLA TYPHIMURIUM, Strain/Indicator: TA98, Metabolic Activation: RAT, LIVER, S-9, AROCLOR 1254, Method: STANDARD PLATE
# [3] = Test System: AMES SALMONELLA TYPHIMURIUM, Strain/Indicator: TA100, Metabolic Activation: NONE, Method: PREINCUBATION
# [4] = Test System: AMES SALMONELLA TYPHIMURIUM, Strain/Indicator: TA100, Metabolic Activation: NONE, Method: STANDARD PLATE
# [5] = Test System: AMES SALMONELLA TYPHIMURIUM, Strain/Indicator: TA100, Metabolic Activation: RAT, LIVER, S-9, AROCLOR 1254, Method: PREINCUBATION
# [6] = Test System: AMES SALMONELLA TYPHIMURIUM, Strain/Indicator: TA100, Metabolic Activation: RAT, LIVER, S-9, AROCLOR 1254, Method: STANDARD PLATE
# [7] = Test System: AMES SALMONELLA TYPHIMURIUM, Strain/Indicator: TA98, Metabolic Activation: NONE, Method: PREINCUBATION
smiles,measurement,setting,value
CCOc1ccc(N=O)cc1,mutagenic call,[1],active; positive
same,mutagenic call,[2],active; positive
same,mutagenic call,"Test System: AMES SALMONELLA TYPHIMURIUM, Strain/Indicator: TA100(NR), Metabolic Activation: NONE, Method: PREINCUBATION",active; positive
same,mutagenic call,"Test System: AMES SALMONELLA TYPHIMURIUM, Strain/Indicator: TA100(NR), Metabolic Activation: NONE, Method: STANDARD PLATE",active; positive
same,mutagenic call,"Test System: AMES SALMONELLA TYPHIMURIUM, Strain/Indicator: TA100(NR), Metabolic Activation: RAT, LIVER, S-9, AROCLOR 1254, Method: PREINCUBATION",active; positive
same,mutagenic call,"Test System: AMES SALMONELLA TYPHIMURIUM, Strain/Indicator: TA100(NR), Metabolic Activation: RAT, LIVER, S-9, AROCLOR 1254, Method: STANDARD PLATE",active; positive
same,mutagenic call,"Test System: AMES SALMONELLA TYPHIMURIUM, Strain/Indicator: TA100, Metabolic Activation: HAMSTER, LIVER, S-9, KANECHLOR 400, Method: PREINCUBATION",active; positive
same,mutagenic call,[3],active; positive
same,mutagenic call,[4],active; positive
same,mutagenic call,[5],active; positive
same,mutagenic call,[6],active; positive
same,mutagenic call,"Test System: AMES SALMONELLA TYPHIMURIUM, Strain/Indicator: TA100TN5-1,8-DNP1011, Metabolic Activation: NONE, Method: PREINCUBATION",active; positive
same,mutagenic call,"Test System: AMES SALMONELLA TYPHIMURIUM, Strain/Indicator: TA100TN5-1,8-DNP1011, Metabolic Activation: NONE, Method: STANDARD PLATE",active; positive
same,mutagenic call,"Test System: AMES SALMONELLA TYPHIMURIUM, Strain/Indicator: TA100TN5-1,8-DNP1011, Metabolic Activation: RAT, LIVER, S-9, AROCLOR 1254, Method: PREINCUBATION",active; positive
same,mutagenic call,"Test System: AMES SALMONELLA TYPHIMURIUM, Strain/Indicator: TA100TN5-1,8-DNP1011, Metabolic Activation: RAT, LIVER, S-9, AROCLOR 1254, Method: STANDARD PLATE",active; positive
same,mutagenic call,"Test System: AMES SALMONELLA TYPHIMURIUM, Strain/Indicator: TA100TN5-1,8-DNP1012, Metabolic Activation: NONE, Method: PREINCUBATION",active; positive
same,mutagenic call,"Test System: AMES SALMONELLA TYPHIMURIUM, Strain/Indicator: TA100TN5-1,8-DNP1012, Metabolic Activation: NONE, Method: STANDARD PLATE",active; positive
same,mutagenic call,"Test System: AMES SALMONELLA TYPHIMURIUM, Strain/Indicator: TA100TN5-1,8-DNP1012, Metabolic Activation: RAT, LIVER, S-9, AROCLOR 1254, Method: PREINCUBATION",active; positive
same,mutagenic call,"Test System: AMES SALMONELLA TYPHIMURIUM, Strain/Indicator: TA100TN5-1,8-DNP1012, Metabolic Activation: RAT, LIVER, S-9, AROCLOR 1254, Method: STANDARD PLATE",active; positive
N[C@@H]1CCCCN1.[Cl][Pt][Cl],mutagenic call,[7],active; positive
same,mutagenic call,[3],active; positive
same,mutagenic call,[5],active; positive
CC/C=C\C/C=C\C/C=C\CCCCCCCC(=O)O,mutagenic call,"Test System: AMES SALMONELLA TYPHIMURIUM, Strain/Indicator: TA98, Metabolic Activation: HAMSTER, LIVER, S-9, AROCLOR 1254, Method: STANDARD PLATE",inactive; negative
same,mutagenic call,[1],inactive; negative
same,mutagenic call,[2],inactive; negative
same,mutagenic call,"Test System: AMES SALMONELLA TYPHIMURIUM, Strain/Indicator: TA100, Metabolic Activation: HAMSTER, LIVER, S-9, AROCLOR 1254, Method: STANDARD PLATE",inactive; negative
same,mutagenic call,[4],inactive; negative
same,mutagenic call,[6],inactive; negative
same,mutagenic call,"Test System: AMES SALMONELLA TYPHIMURIUM, Strain/Indicator: TA1535, Metabolic Activation: HAMSTER, LIVER, S-9, AROCLOR 1254, Method: STANDARD PLATE",inactive; negative
same,mutagenic call,"Test System: AMES SALMONELLA TYPHIMURIUM, Strain/Indicator: TA1535, Metabolic Activation: NONE, Method: STANDARD PLATE",inactive; negative
same,mutagenic call,"Test System: AMES SALMONELLA TYPHIMURIUM, Strain/Indicator: TA1535, Metabolic Activation: RAT, LIVER, S-9, AROCLOR 1254, Method: STANDARD PLATE",inactive; negative
same,mutagenic call,"Test System: AMES SALMONELLA TYPHIMURIUM, Strain/Indicator: TA1537, Metabolic Activation: HAMSTER, LIVER, S-9, AROCLOR 1254, Method: STANDARD PLATE",inactive; negative
same,mutagenic call,"Test System: AMES SALMONELLA TYPHIMURIUM, Strain/Indicator: TA1537, Metabolic Activation: NONE, Method: STANDARD PLATE",inactive; negative
same,mutagenic call,"Test System: AMES SALMONELLA TYPHIMURIUM, Strain/Indicator: TA1537, Metabolic Activation: RAT, LIVER, S-9, AROCLOR 1254, Method: STANDARD PLATE",inactive; negative
same,mutagenic call,"Test System: AMES SALMONELLA TYPHIMURIUM, Strain/Indicator: TA1538, Metabolic Activation: HAMSTER, LIVER, S-9, AROCLOR 1254, Method: STANDARD PLATE",inactive; negative
same,mutagenic call,"Test System: AMES SALMONELLA TYPHIMURIUM, Strain/Indicator: TA1538, Metabolic Activation: NONE, Method: STANDARD PLATE",inactive; negative
same,mutagenic call,"Test System: AMES SALMONELLA TYPHIMURIUM, Strain/Indicator: TA1538, Metabolic Activation: RAT, LIVER, S-9, AROCLOR 1254, Method: STANDARD PLATE",inactive; negative
same,mutagenic call,"Test System: MOUSE LYMPHOMA, Strain/Indicator: L5178Y (TK+/TK-), Metabolic Activation: NONE, Method: SUSPENSION/PLATE",inactive; negative. reevaluation of results: inconclusive
same,mutagenic call,"Test System: MOUSE LYMPHOMA, Strain/Indicator: L5178Y (TK+/TK-), Metabolic Activation: RAT, LIVER, S-9, AROCLOR 1254, Method: SUSPENSION/PLATE",inactive; negative. reevaluation of results: negative
Nc1ccc(NC(=O)c2ccc(N)cc2)cc1,mutagenic call,[7],inactive; negative
same,mutagenic call,"Test System: AMES SALMONELLA TYPHIMURIUM, Strain/Indicator: TA98, Metabolic Activation: RAT LIVER S-9, PHENOBARBITAL AND BETA-NAPHTHOFLAVONE, Method: PREINCUBATION",active; positive
same,mutagenic call,[3],inactive; negative
same,mutagenic call,"Test System: AMES SALMONELLA TYPHIMURIUM, Strain/Indicator: TA100, Metabolic Activation: RAT LIVER S-9, PHENOBARBITAL AND BETA-NAPHTHOFLAVONE, Method: PREINCUBATION",inactive; negative
same,mutagenic call,"Test System: AMES SALMONELLA TYPHIMURIUM, Strain/Indicator: TA1535, Metabolic Activation: NONE, Method: PREINCUBATION",inactive; negative
same,mutagenic call,"Test System: AMES SALMONELLA TYPHIMURIUM, Strain/Indicator: TA1535, Metabolic Activation: RAT LIVER S-9, PHENOBARBITAL AND BETA-NAPHTHOFLAVONE, Method: PREINCUBATION",inactive; negative
same,mutagenic call,"Test System: AMES SALMONELLA TYPHIMURIUM, Strain/Indicator: TA1537, Metabolic Activation: RAT LIVER S-9, PHENOBARBITAL AND BETA-NAPHTHOFLAVONE, Method: PREINCUBATION",active; positive
same,mutagenic call,"Test System: E.COLI, Strain/Indicator: WP2UVRA, Metabolic Activation: NONE, Method: PREINCUBATION",inactive; negative
same,mutagenic call,"Test System: E.COLI, Strain/Indicator: WP2UVRA, Metabolic Activation: RAT LIVER S-9, PHENOBARBITAL AND BETA-NAPHTHOFLAVONE, Method: PREINCUBATION",inactive; negative
O=C(O)c1oc([N+](=O)[O-])c(-c2ccccc2)c1-c1ccccc1,mutagenic call,[1],inactive; negative
same,mutagenic call,[4],active; positive
